From patent publication US10376486B2, “Compositions and methods for reactivating latent viral infections” (priority 2014, dated 2019)

Key:
[1] = system: CD4, CCR5 and CXCR4; assay: Expression of HIV receptors/co-receptors in primary CD4+ T cells (RT-qPCR); type: cell-based, human; details: primary CD4+ T cells of healthy HIV-negative donors, 12 nM PEP005, 72 hours
Protocol: (§1) FIG. 12: PEP005 down-modulates the expression of CD4, CCR5 and CXCR4 and inhibits HIV infection of primary CD4+ T cells ex vivo. (A) PEP005 inhibits expression of HIV receptors/co-receptors. […] The expression of CD4, CCR5 and CXCR4 genes was evaluated using RT-qPCR after normalizing for GAPDH. (B) and (C) PEP005 inhibits HIV infection of primary CD4+ T cells ex vivo. Primary CD4+ T cells were pre-treated with 12 or 24 nM PEP005 overnight and infected with the virus. The CD4+ T cells were incubated for 5 days without PEP005. The cells were collected for RT-qPCR targeting the HIV LTR region (B), or supernatants were collected for p24 ELISA (C). *, p<0.05; **, p<0.01.
Recent studies have shown that Prostratin and analogs down-modulate HIV receptor/co-receptor expression, which could have protective effects against the viral infection. Conversely, SAHA, known to induce latent HIV expression in HIV infected individuals receiving ART, was reported to increase susceptibility of naive CD4+ T cells to HIV acquisition. […] Primary CD4+ T cells from peripheral blood samples of healthy HIV-negative donors were treated with 12 nM PEP005 and evaluated for the expression levels of CD4, CCR5, and CCXR4 using RT-qPCR. […] The virological outcome in the CD4+ T cell cultures in vitro was monitored for 5 days.

[2] = system: HIV-1 IIIB; assay: HIV-1 infection of primary CD4+ T cells pre-treated with PEP005 (RT-qPCR, p24 ELISA); type: cell-based; details: pre-treatment with 12 or 24 nM PEP005; 3 and 5 days after HIV infection
Protocol: as §1
Primary CD4+ T cells were isolated from peripheral blood samples of healthy HIV-negative donors and were pre-treated with PEP005 overnight. The CD4+ T cells were infected with HIV-1 (HIV-1 IIIB expanded in Jurkat T cells, 100 ng p24-gag) through spinoculation as described previously. Following an exposure of 24 hrs to HIV, the cells were washed. Cell supernatants were collected and HIV p24 levels were measured by ELISA. The cells were also collected for RNA extraction and measurement of viral transcripts by RT-qPCR.

## C/C=C(/C)C(=O)O[C@H]1C(C)=C[C@]23C(=O)[C@@H](C=C(CO)[C@@H](O)[C@]12O)[C@H]1[C@@H](C[C@H]3C)C1(C)C [PEP005, (1aR,2S,5R,5aS,6S,8aS,9R,10aR)-5,5a-Dihydroxy-4-(hydroxymethyl)-1,1,7,9-tetramethyl-11-oxo-1a,2,5,5a,6,9,10,10a-octahydro-1H-2,8a-methanocyclopenta[a]cyclpropa[e][10]annulen-6-yl (2Z)-2-methylbut-2-enoate]
[1]
  expression of CD4, CCR5, and CXCR4: significant reduction
[2]
  HIV gene expression after HIV infection (RT-qPCR, HIV LTR region): dampened HIV gene expression
  viral replication after HIV infection (p24 ELISA): decreased the level of viral replication
